Patent US20240109900A1, “AZABICYCLIC SHP2 INHIBITORS” (IRBM S.P.A., priority 2021, published 2024)
Like-named read-outs stand apart in the source and are kept apart here.

Columns and labels:
[1] = target: SHP-2 enzyme (Met1-Leu525) (Homo sapiens (Human), UniProt Q06124); assay: SHP2 inhibition enzymatic assay; format: biochemical; conditions: 75 μM DiFMUP substrate
Procedure, shortened: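 Compounds were preincubated 30 min with 0.5 nM SHP-2 (Met1-Leu525) plus 500 nM IRS1 activating peptide (pH 7.2 HEPES, 5 mM DTT), then 75 μM DiFMUP substrate reacted 30 min at room temperature. After bpV quench, DiFMUP fluorescence gave % inhibition; four-parameter logistic fit yielded IC50.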

[2] = test system: ERK phosphorylation in KYSE-520 cells; assay: Phospho-ERK cellular assay; format: cell-based; conditions: read-out: PERK IC50
Procedure, shortened: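 TR-FRET read-out of ERK1/2 Thr202/Tyr204 phosphorylation was taken after overnight antibody incubation at room temperature. Before that, KYSE-520 cells were treated 2 h at 37 °C with compound dilutions and lysed 30 min. Percent inhibition relative to vehicle and cell-free wells was fitted four-parametrically to give IC50.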

[3] = 0.5 nM SHP-2 activated by 500 nM IRS1 peptide, read-out: SHP2wt-IC50
[4] = Homo sapiens, KYSE-520, 2 h, KYSE-520 cells, 2 h at 37° C., phospho-ERK1/2 (Thr202/Tyr204) TR-FRET
[5] = KYSE-520 cells, 2 h at 37° C., phospho-ERK1/2 (Thr202/Tyr204) TR-FRET

Sequence of SHP-2 enzyme (Met1-Leu525) (Q06124 1-525): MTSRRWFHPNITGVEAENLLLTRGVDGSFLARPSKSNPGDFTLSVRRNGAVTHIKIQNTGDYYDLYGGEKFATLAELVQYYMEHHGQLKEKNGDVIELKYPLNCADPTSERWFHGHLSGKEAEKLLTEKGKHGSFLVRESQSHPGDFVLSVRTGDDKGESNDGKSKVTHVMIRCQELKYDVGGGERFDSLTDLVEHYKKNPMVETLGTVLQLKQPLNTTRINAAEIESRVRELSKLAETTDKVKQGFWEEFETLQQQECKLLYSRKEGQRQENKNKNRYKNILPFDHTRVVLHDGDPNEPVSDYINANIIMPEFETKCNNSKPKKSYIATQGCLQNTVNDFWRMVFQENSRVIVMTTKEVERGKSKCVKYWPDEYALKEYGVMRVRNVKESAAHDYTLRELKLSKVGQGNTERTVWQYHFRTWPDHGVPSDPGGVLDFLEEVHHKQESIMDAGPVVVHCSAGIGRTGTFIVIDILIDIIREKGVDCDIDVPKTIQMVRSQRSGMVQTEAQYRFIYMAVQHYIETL

Row | IC50 [1, 3] [nM] | IC50 [2, 4] [nM] | IC50 [2, 5] [nM] | Structure (SMILES) | IC50 ([1]; SHP2wt-IC50, 0.5 nM SHP-2 activated by 500 nM IRS1 peptide) [nM] | IC50 ([2]; Homo sapiens, KYSE-520, 2 h) [nM]
1 | < 500 | < 1000 |  | NC[C@]1(c2ccccc2)[C@@H]2CN(c3cnc4c(-c5cccc(Cl)c5Cl)n[nH]c4n3)C[C@@H]21 [Example 452, ((1R,5S,6s)-3-(3-(2,3-dichlorophenyl)-1H-pyrazolo[3,4-b]pyrazin-6-yl)-6-phenyl-3-azabicyclo[3.1.0]hexan-6-yl)methanamine] |  | 
2 | < 500 | < 1000 |  | Cn1cc2c(Cl)c(-c3n[nH]c4nc(N5C[C@@H]6[C@H](C5)[C@@]6(CN)c5ccccc5)cnc34)ccc2n1 [Example 453, ((1R,5S,6s)-3-(3-(4-chloro-2-methyl-2H-indazol-5-yl)-1H-pyrazolo[3,4-b]pyrazin-6-yl)-6-phenyl-3-azabicyclo[3.1.0]hexan-6-yl)methanamine] |  | 
3 | < 500 | < 1000 |  | Cc1csc([C@@]2(CN)[C@@H]3CN(c4cnc5c(-c6ccc7nn(C)cc7c6Cl)n[nH]c5n4)C[C@@H]32)n1 [Example 457, ((1R,5S,6r)-3-(3-(4-chloro-2-methyl-2H-indazol-5-yl)-1H-pyrazolo[3,4-b]pyrazin-6-yl)-6-(4-methylthiazol-2-yl)-3-azabicyclo[3.1.0]hexan-6-yl)methanamine] |  | 
4 | < 500 |  | < 1000 | Cc1csc([C@@]2(CN)[C@@H]3CN(c4cnc5c(-c6ccn7nccc7c6Cl)n[nH]c5n4)C[C@@H]32)n1 [Example 458] |  | 
5 | < 500 |  | < 1000 | Cc1csc([C@@]2(CN)[C@@H]3CN(c4cnc5c(-c6ccnc7c(F)cccc67)n[nH]c5n4)C[C@@H]32)n1 [Example 459] |  | 
6 | < 500 |  | < 1000 | Cc1csc([C@@]2(CN)[C@@H]3CN(c4cnc5c(-c6ccc7cn(C(F)F)nc7c6Cl)n[nH]c5n4)C[C@@H]32)n1 [Example 464] |  | 
7 | < 500 |  | < 1000 | Cc1csc([C@@]2(CN)[C@@H]3CN(c4cnc5c(-c6ccc7nsnc7c6Cl)n[nH]c5n4)C[C@@H]32)n1 [Example 467] |  | 
8 | < 500 | < 1000 |  | Cc1csc([C@@]2(CN)[C@@H]3CN(c4nc5[nH]nc(-c6ccc7nc(C)sc7c6Cl)c5c(=O)n4C)C[C@@H]32)n1 [Example 469, 6-((1R,5S,6r)-6-(aminomethyl)-6-(4-methylthiazol-2-yl)-3-azabicyclo[3.1.0]hexan-3-yl)-3-(7-chloro-2-methylbenzo[d]thiazol-6-yl)-5-methyl-1,5-dihydro-4H-pyrazolo[3,4-d]pyrimidin-4-one] |  | 
9 | < 500 | < 1000 |  | Cc1csc([C@@]2(CN)[C@@H]3CN(c4nc5[nH]nc(-c6ccc7nn(C)cc7c6Cl)c5c(=O)n4C)C[C@@H]32)n1 [Example 472, 6-((1R,5S,6r)-6-(aminomethyl)-6-(4-methylthiazol-2-yl)-3-azabicyclo[3.1.0]hexan-3-yl)-3-(4-chloro-2-methyl-2H-indazol-5-yl)-5-methyl-1,5-dihydro-4H-pyrazolo[3,4-d]pyrimidin-4-one] |  | 
10 | < 500 | < 1000 |  | Cn1ccc([C@@]2(CN)[C@@H]3CN(c4cnc5c(-c6ccc7nn(C)cc7c6Cl)n[nH]c5n4)C[C@@H]32)n1 [Example 474, ((1R,5S,6r)-3-(3-(4-chloro-2-methyl-2H-indazol-5-yl)-1H-pyrazolo[3,4-b]pyrazin-6-yl)-6-(1-methyl-1H-pyrazol-3-yl)-3-azabicyclo[3.1.0]hexan-6-yl)methanamine] |  | 
11 | < 500 |  | < 1000 | Cc1csc([C@@]2(CN)[C@@H]3CN(c4cnc5c(-c6ccc7nnsc7c6Cl)n[nH]c5n4)C[C@@H]32)n1 [Example 479] |  | 
12 | < 500 | < 1000 |  | Cc1csc([C@@]2(CN)[C@@H]3CCN(c4cnc5c(-c6cc7ccnn7cc6Cl)n[nH]c5n4)C[C@@H]32)n1 [Example 481, ((1S,6R,7S)-3-(3-(6-chloropyrazolo[1,5-a]pyridin-5-yl)-1H-pyrazolo[3,4-b]pyrazin-6-yl)-7-(4-methylthiazol-2-yl)-3-azabicyclo[4.1.0]heptan-7-yl)methanamine] |  | 

The next lines start with the compound.

Row | Structure (SMILES) | IC50 [1, 3] [nM] | IC50 [2, 4] [nM] | IC50 [2, 5] [nM] | IC50 ([1]; SHP2wt-IC50, 0.5 nM SHP-2 activated by 500 nM IRS1 peptide) [nM] | IC50 ([2]; Homo sapiens, KYSE-520, 2 h) [nM]
13 | Cc1csc(C2(CN)C3CCN(c4cnc5c(-c6ccc(OS(=O)(=O)F)c(Cl)c6Cl)n[nH]c5n4)CC32)n1 (stereo not shown) [Example 450, 4-(6-(7-(aminomethyl)-7-(4-methylthiazol-2-yl)-3-azabicyclo[4.1.0]heptan-3-yl)-1H-pyrazolo[3,4-b]pyrazin-3-yl)-2,3-dichlorophenyl sulfurofluoridate] |  |  |  | < 500 | < 1000
14 | NC[C@]1(c2ccccc2F)[C@@H]2CCN(c3cnc4c(-c5ccnc(-n6cccn6)c5Cl)n[nH]c4n3)C[C@@H]21 [Example 451, ((1S,6R,7R)-3-(3-(3-chloro-2-(1H-pyrazol-1-yl)pyridin-4-yl)-1H-pyrazolo[3,4-b]pyrazin-6-yl)-7-(2-fluorophenyl)-3-azabicyclo[4.1.0]heptan-7-yl)methanamine] | < 500 | < 1000 |  |  | 
15 | NC[C@]1(c2ccccc2F)[C@@H]2CCN(c3cnc4c(-c5ccc(-n6cccc6)cc5Cl)n[nH]c4n3)C[C@@H]21 [Example 454, ((1S,6R,7R)-3-(3-(2-chloro-4-(1H-pyrrol-1-yl)phenyl)-1H-pyrazolo[3,4-b]pyrazin-6-yl)-7-(2-fluorophenyl)-3-azabicyclo[4.1.0]heptan-7-yl)methanamine] | < 500 | < 1000 |  |  | 
16 | NC[C@]1(c2ccccc2)[C@@H]2CN(c3cnc4c(-c5cc(F)c6ncccc6c5)n[nH]c4n3)C[C@@H]21 [Example 455, ((1R,5S,6s)-3-(3-(8-fluoroquinolin-6-yl)-1H-pyrazolo[3,4-b]pyrazin-6-yl)-6-phenyl-3-azabicyclo[3.1.0]hexan-6-yl)methanamine] | < 500 | < 1000 |  |  | 
17 | NC[C@]1(c2ccccc2)[C@@H]2CN(c3cnc4c(-c5ccc6nccnc6c5Cl)n[nH]c4n3)C[C@@H]21 [Example 456, ((1R,5S,6s)-3-(3-(5-chloroquinoxalin-6-yl)-1H-pyrazolo[3,4-b]pyrazin-6-yl)-6-phenyl-3-azabicyclo[3.1.0]hexan-6-yl)methanamine] | < 500 | < 1000 |  |  | 
18 | Cc1csc([C@@]2(CN)[C@@H]3CN(c4cnc5c(-c6ccc7nccnc7c6Cl)n[nH]c5n4)C[C@@H]32)n1 [Example 460] | < 500 |  | < 1000 |  | 
19 | Cc1csc([C@@]2(CN)[C@@H]3CN(c4cnc5c(-c6ccc7nc(C)sc7c6Cl)n[nH]c5n4)C[C@@H]32)n1 [Example 461] | < 500 |  | < 1000 |  | 
20 | Cc1csc([C@@]2(CN)[C@@H]3CN(c4cnc5c(-c6ccc7nscc7c6Cl)n[nH]c5n4)C[C@@H]32)n1 [Example 463] | < 500 |  | < 1000 |  | 
21 | Cc1csc([C@@]2(CN)[C@@H]3CN(c4cnc5c(-c6ccc7nn(C(F)F)cc7c6Cl)n[nH]c5n4)C[C@@H]32)n1 [Example 466] | < 500 |  | < 1000 |  | 
22 | Cn1cc2c(Cl)c(-c3n[nH]c4nc(N5C[C@@H]6[C@H](C5)[C@@]6(CN)c5nc(Cl)cs5)n(C)c(=O)c34)ccc2n1 [Example 470, 6-((1R,5S,6r)-6-(aminomethyl)-6-(4-chlorothiazol-2-yl)-3-azabicyclo[3.1.0]hexan-3-yl)-3-(4-chloro-2-methyl-2H-indazol-5-yl)-5-methyl-1,5-dihydro-4H-pyrazolo[3,4-d]pyrimidin-4-one] | < 500 | < 1000 |  |  | 
23 | Cn1cc2c(Cl)c(-c3n[nH]c4nc(N5C[C@@H]6[C@H](C5)[C@@]6(CN)c5nc(C(F)(F)F)cs5)n(C)c(=O)c34)ccc2n1 [Example 471, 6-((1R,5S,6r)-6-(aminomethyl)-6-(4-(trifluoromethyl)thiazol-2-yl)-3-azabicyclo[3.1.0]hexan-3-yl)-3-(4-chloro-2-methyl-2H-indazol-5-yl)-5-methyl-1,5-dihydro-4H-pyrazolo[3,4-d]pyrimidin-4-one] | < 500 | < 1000 |  |  | 
24 | Cc1csc([C@@]2(CN)[C@@H]3CN(c4nc5[nH]cc(-c6ccc7nn(C)cc7c6Cl)c5c(=O)n4C)C[C@@H]32)n1 [Example 473, 2-((1R,5S,6r)-6-(aminomethyl)-6-(4-methylthiazol-2-yl)-3-azabicyclo[3.1.0]hexan-3-yl)-5-(4-chloro-2-methyl-2H-indazol-5-yl)-3-methyl-3,7-dihydro-4H-pyrrolo[2,3-d]pyrimidin-4-one] | < 500 | < 1000 |  |  | 
25 | Cc1nc2ccc(-c3n[nH]c4nc(N5C[C@@H]6[C@H](C5)[C@@]6(CN)c5ccn(C)n5)cnc34)c(Cl)c2s1 [Example 475, ((1R,5S,6r)-3-(3-(7-chloro-2-methylbenzo[d]thiazol-6-yl)-1H-pyrazolo[3,4-b]pyrazin-6-yl)-6-(1-methyl-1H-pyrazol-3-yl)-3-azabicyclo[3.1.0]hexan-6-yl)methanamine] | < 500 | < 1000 |  |  | 
26 | COc1nccc(-c2n[nH]c3nc(N4C[C@@H]5[C@H](C4)C5(CN)c4nc(C)cs4)cnc23)c1Cl (stereo partly shown) [Example 476] | < 500 |  | < 1000 |  | 
27 | Cc1csc(C2(CN)[C@@H]3CN(c4cnc5c(-c6ccc7nn(CC#N)cc7c6Cl)n[nH]c5n4)C[C@@H]32)n1 (stereo partly shown) [Example 478] | < 500 |  | < 1000 |  | 
28 | Cc1csc(C2(CN)[C@@H]3CN(c4cnc5c(-c6ccc7c(cnn7C)c6Cl)n[nH]c5n4)C[C@@H]32)n1 (stereo partly shown) [Example 480] | < 500 |  | < 1000 |  | 
29 | Cc1csc(C2(CN)[C@@H]3CN(c4cnc5c(-c6cccn7nccc67)n[nH]c5n4)C[C@@H]32)n1 (stereo partly shown) [Example 482] | < 500 |  | < 1000 |  | 
